Laboratory results taken from patent EP4567035A1, “NOVEL COMPOUND AS HYPOXIA-INDUCIBLE FACTOR 1(HIF-1) INHIBITOR OR VASCULAR ENDOTHELIAL GROWTH FACTOR (VEGF) INHIBITOR, AND PHARMACEUTICAL COMPOSITION COMPRISING SAME” (Nextgen Bioscience Co., Ltd., priority 2022, dated 2024).
Like-named read-outs stand apart in the source and are kept apart here.

Tests used:
[1] = target: T1, HIF-1α (Homo sapiens, UniProt Q16665); assay: Analysis of HIF-1α protein expression (Western blot) in ARPE-19 cells under mixed hypoxic condition; type: cell-based; details: concentration range at which HIF-1α expression is reduced by 50% vs untreated control
T1 construct: endogenous in cells; host or cells: ARPE-19 (ATCC CRL-2302)
T1 sequence (Q16665 whole entry): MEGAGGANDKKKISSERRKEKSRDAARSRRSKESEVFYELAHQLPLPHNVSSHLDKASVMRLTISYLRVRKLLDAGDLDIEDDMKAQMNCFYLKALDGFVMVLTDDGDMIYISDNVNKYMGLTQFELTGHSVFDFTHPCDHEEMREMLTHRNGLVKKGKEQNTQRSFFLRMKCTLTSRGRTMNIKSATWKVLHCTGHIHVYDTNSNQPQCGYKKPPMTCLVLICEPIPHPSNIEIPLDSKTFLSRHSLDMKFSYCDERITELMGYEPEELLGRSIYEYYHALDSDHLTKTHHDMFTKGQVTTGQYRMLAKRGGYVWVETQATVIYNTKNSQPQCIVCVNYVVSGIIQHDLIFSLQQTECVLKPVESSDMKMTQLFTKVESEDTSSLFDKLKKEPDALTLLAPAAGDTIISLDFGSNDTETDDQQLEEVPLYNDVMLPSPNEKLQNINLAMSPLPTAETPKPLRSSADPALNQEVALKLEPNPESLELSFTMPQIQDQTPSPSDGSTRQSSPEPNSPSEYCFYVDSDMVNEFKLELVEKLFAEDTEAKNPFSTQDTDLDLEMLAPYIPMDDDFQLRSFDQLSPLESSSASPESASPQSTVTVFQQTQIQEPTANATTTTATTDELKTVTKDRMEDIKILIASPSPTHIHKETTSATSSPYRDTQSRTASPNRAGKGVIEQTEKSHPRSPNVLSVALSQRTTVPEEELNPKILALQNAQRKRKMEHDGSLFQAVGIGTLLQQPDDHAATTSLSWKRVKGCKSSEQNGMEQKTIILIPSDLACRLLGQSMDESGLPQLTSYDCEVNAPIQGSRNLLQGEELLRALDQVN
In short: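 ARPE-19 cells were pretreated 16 h or 2 h with compound (0.1 nM–10 µM, serum-free DMEM/F12), then held 1 h or 24 h in mixed hypoxia (1% O2 plus CoCl2). HIF-1α was quantified by Western blot against β-actin; the concentration range giving ≥50% reduction vs untreated control was reported.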

[2] = system: VEGF; assay: Evaluation of VEGF protein secretion level (Human VEGF ELISA) in ARPE-19 cell medium under hypoxic conditions; type: cell-based
Description: ARPE-19 cells (Human retinal pigment epithelial cells, ATCC CRL-2302) were cultured in DMEM/F12 (LM002-08, Welgene) medium containing 10% fetal bovine serum (FBS, 16000-044, Gibco) in an incubator at 37°C with 5% carbon dioxide. When the cells grew sufficiently, they were cultured in experimental culture dishes for protein isolation and medium supernatant acquisition.
Cells were detached from the culture dish using TrypLE™ Express (Gibco). After centrifugation at 1000 rpm for 3 minutes, the supernatant was removed. The cells were counted and seeded into new culture dishes. Normoxic conditions were maintained by culturing the cells in a 37°C incubator with 5% carbon dioxide, and hypoxic conditions were maintained by culturing the cells in a hypoxic incubator with 1% oxygen, 5% carbon dioxide, and 94% nitrogen gas.
The expression of the downstream gene, angiogenesis inducer VEGF, is regulated by HIF-1α, a major transcription factor under hypoxic conditions, and the level of secreted VEGF protein can be quantitatively confirmed through ELISA (Enzyme Linked Immunosorbent Assay, Human VEGF Quantikine ELISA Kit, R&D systems). For this purpose, the following experiment was conducted.
The compounds of each Example were diluted to 0.1 nM, 1 nM, 3 nM, 10 nM, 30 nM, 100 nM, 300 nM, 1 µM and 10 µM in DMEM/F12 medium containing 1% fetal bovine serum, pretreated for 2 hours, and cultured for 24 hours under hypoxic conditions to obtain the cell medium supernatant. The supernatant was centrifuged at 1000 rpm for 3 minutes, and a specific amount was treated with a VEGF ELISA assay kit and the absorbance value was measured at 450 nm to quantitatively confirm the level of VEGF protein (see Table 1 below).
Based on the results of secreted VEGF protein expression levels in cell media treated with compounds diluted at concentrations ranging from 10 µM to 0.1 nM, the concentration range of the compound at which the secreted VEGF protein level was reduced by 50% or less compared to the untreated control group was derived.

[3] = mixed hypoxic condition (1% oxygen + CoCl2) for 1 hour, read-out: IC50 HIF-1α Hypoxia (1 hour)
[4] = ARPE-19 cells, pretreated 2 hours, 24 hours hypoxic conditions, secreted VEGF in medium supernatant by ELISA, concentration range reducing VEGF by 50% vs untreated control, read-out: IC50 VEGF
[5] = values marked * in the table, mixed hypoxic condition (1% oxygen + CoCl2) for 24 hours, read-out: IC50 HIF-1α, Hypoxia(24h)
[6] = ARPE-19 cells, pretreated 2 hours, 24 hours hypoxic conditions, ELISA, read-out: concentration at which the secreted VEGF protein level was suppressed to less than 50%
[7] = Experimental Example 2 (HIF-1α Western blot), read-out: concentration at which the expression level of VEGF was suppressed to less than 50%

| SMILES | DC50 [1, 3] | IC50 [2, 4] | DC50 [1, 5] | IC50 [2, 6] | IC50 [2, 7] |
| --- | --- | --- | --- | --- | --- |
| O=C(NCc1cc(F)cc(-c2ccco2)c1)c1ncnc2nc(C3CCCC3)[nH]c12 [Example 39, 8-Cyclopentyl-N-(3-fluoro-5-(furan-2-yl)benzyl)-7H-purine-6-carboxamide] | 100 to 1000 nM | 100 to 1000 nM |  |  |  |
| O=C(NCc1cc(F)cc(-c2ccsc2)c1)c1ncnc2nc(C3CCCC3)[nH]c12 [Example 40, 8-Cyclopentyl-N-(3-fluoro-5-(thiophen-3-yl)benzyl)-7H-purine-6-carboxamide] |  | 100 to 1000 nM | < 100 nM |  |  |
| O=C(NCc1cc(F)cc(Nc2ccc(C(F)(F)F)cc2)c1)c1ncnc2nc(C3CCCC3)[nH]c12 [Example 41, 8-Cyclopentyl-N-(3-fluoro-5-((4-(trifluoromethyl)phenyl)amino)benzyl)-7H-purine-6-carboxamide] | < 100 nM | 100 to 1000 nM |  |  |  |
| Cc1cc(-n2cc(-c3cc(F)cc(CNC(=O)c4ncnc5nc(C6CCCC6)[nH]c45)c3)cn2)ccn1 [Example 42, 8-Cyclopentyl-N-(3-fluoro-5-(1-(2-methylpyridin-4-yl)-1H-pyrazol-4-yl)benzyl)-7H-purine-6-carboxamide] |  | < 100 nM | < 100 nM | < 100 nM | < 100 nM |
| COc1ccc(-n2cc(-c3cc(F)cc(CNC(=O)c4ncnc5nc(C6CCCC6)[nH]c45)c3)cn2)cn1 [Example 43, 8-Cyclopentyl-N-(3-fluoro-5-(1-(6-methoxypyridin-3-yl)-1H-pyrazol-4-yl)benzyl)-7H-purine-6-carboxamide] | < 100 nM | 100 to 1000 nM |  |  |  |
| O=C(NCc1cc(F)cc(-c2cnn(-c3ccc(C(F)(F)F)nc3)c2)c1)c1ncnc2nc(C3CCCC3)[nH]c12 [Example 44, 8-Cyclopentyl-N-(3-fluoro-5-(1-(6-(trifluoromethyl)pyridin-3-yl)-1H-pyrazol-4-yl)benzyl)-7H-purine-6-carboxamide] | < 100 nM | 100 to 1000 nM |  |  |  |
| CS(=O)(=O)c1cccc(-n2cc(-c3cc(F)cc(CNC(=O)c4ncnc5nc(C6CCCC6)[nH]c45)c3)cn2)c1 [Example 45, 8-Cyclopentyl-N-(3-fluoro-5-(1-(3-(methylsulfonyl)phenyl)-1H-pyrazol-4-yl)benzyl)-7H-purine-6-carboxamide] |  | < 100 nM | < 100 nM | < 100 nM | < 100 nM |
| O=C(NCc1cc(F)cc(-c2cnn(-c3cccc(F)c3)c2)c1)c1ncnc2nc(C3CCCC3)[nH]c12 [Example 46, 8-Cyclopentyl-N-(3-fluoro-5-(1-(3-fluorophenyl)-1H-pyrazol-4-yl)benzyl)-7H-purine-6-carboxamide] |  | 100 to 1000 nM | < 100 nM |  |  |
| O=C(NCc1cc(F)cc(-c2cnn(-c3ccc(F)nc3)c2)c1)c1ncnc2nc(C3CCCC3)[nH]c12 [Example 47, 8-Cyclopentyl-N-(3-fluoro-5-(1-(6-fluoropyridin-3-yl)-1H-pyrazol-4-yl)benzyl)-7H-purine-6-carboxamide] |  | < 100 nM | < 100 nM | < 100 nM | < 100 nM |
| O=C(NCc1cc(F)cc(-c2cnn(-c3ccc(I)cn3)c2)c1)c1ncnc2nc(C3CCCC3)[nH]c12 [Example 48, 8-Cyclopentyl-N-(3-fluoro-5-(1-(5-iodopyridin-2-yl)-1H-pyrazol-4-yl)benzyl)-7H-purine-6-carboxamide] | < 100 nM | 1000 to 10000 nM |  |  |  |
| O=C(O)c1cccc(-n2cc(-c3cc(F)cc(CNC(=O)c4ncnc5nc(C6CCCC6)[nH]c45)c3)cn2)c1 [Example 49, 3-(4-(3-((8-Cyclopentyl-7H-purine-6-carboxamido)methyl)-5-fluorophenyl)-1H-pyrazol-1-yl)benzoic acid] | < 100 nM | 1000 to 10000 nM |  |  |  |
| N#Cc1ccc(-n2cc(-c3cc(F)cc(CNC(=O)c4ncnc5nc(C6CCCC6)[nH]c45)c3)cn2)cc1 [Example 50, N-(3-(1-(4-cyanophenyl)-1H-pyrazol-4-yl)-5-fluorobenzyl)-8-cyclopentyl-7H-purine-6-carboxamide] |  | < 100 nM | < 100 nM | < 100 nM | < 100 nM |
| O=C(NCc1cc(F)cc(-c2ccn(-c3ccc(F)cc3)n2)c1)c1ncnc2nc(C3CCCC3)[nH]c12 [Example 51, 8-Cyclopentyl-N-(3-fluoro-5-(1-(4-fluorophenyl)-1H-pyrazol-3-yl)benzyl)-7H-purine-6-carboxamide] | < 100 nM | 100 to 1000 nM |  |  |  |
| O=C(NCc1cc(F)cc(-c2ccn(-c3ccc(F)cc3)c2)c1)c1ncnc2nc(C3CCCC3)[nH]c12 [Example 52, 8-Cyclopentyl-N-(3-fluoro-5-(1-(4-fluorophenyl)-1H-pyrrol-3-yl)benzyl)-7H-purine-6-carboxamide] | < 100 nM | 100 to 1000 nM |  |  |  |
| NC(=O)c1ccc(-n2cc(-c3cc(F)cc(CNC(=O)c4ncnc5nc(C6CCCC6)[nH]c45)c3)cn2)cc1 [Example 53, N-(3-(1-(4-carbamoylphenyl)-1H-pyrazol-4-yl)-5-fluorobenzyl)-8-cyclopentyl-7H-purine-6-carboxamide] |  | 100 to 1000 nM | < 100 nM |  |  |
| O=C(O)c1ccc(-n2cc(-c3cc(F)cc(CNC(=O)c4ncnc5nc(C6CCCC6)[nH]c45)c3)cn2)cc1 [Example 54, 4-(4-(3-((8-Cyclopentyl-7H-purine-6-carboxamido)methyl)-5-fluorophenyl)-1H-pyrazol-1-yl)benzoic acid] | < 100 nM | 100 to 1000 nM |  |  |  |
| O=C(NCc1cc(-c2cnn(-c3ccc(F)cc3)c2)ccc1F)c1ncnc2nc(C3CCCC3)[nH]c12 [Example 56, 8-Cyclopentyl-N-(2-fluoro-5-(1-(4-fluorophenyl)-1H-pyrazol-4-yl)benzyl)-7H-purine-6-carboxamide] |  | 100 to 1000 nM | < 100 nM |  |  |
| O=C(NCc1cccc(-c2cnn(-c3ccc(F)cc3)c2)c1)c1ncnc2nc(C3CCCC3)[nH]c12 [Example 57, 8-Cyclopentyl-N-(3-(1-(4-fluorophenyl)-1H-pyrazol-4-yl)benzyl)-7H-purine-6-carboxamide] |  | 100 to 1000 nM | < 100 nM |  |  |
| O=C(NCc1cc(F)cc(-c2cnn(-c3ccc(Cl)cc3)c2)c1)c1ncnc2nc(C3CCCC3)[nH]c12 [Example 58, N-(3-(1-(4-chlorophenyl)-1H-pyrazol-4-yl)-5-fluorobenzyl)-8-cyclopentyl-7H-purine-6-carboxamide] |  | 100 to 1000 nM | < 100 nM |  |  |
| CS(=O)(=O)c1cc(Br)ccc1-n1cc(-c2cc(F)cc(CNC(=O)c3ncnc4nc(C5CCCC5)[nH]c34)c2)cn1 [Example 59, N-(3-(1-(4-bromo-2-(methylsulfonyl)phenyl)-1H-pyrazol-4-yl)-5-fluorobenzyl)-8-cyclopentyl-7H-purine-6-carboxamide] |  | 100 to 1000 nM | 100 to 1000 nM |  |  |
| O=C(NCc1cc(F)cc(-c2cnn(-c3ccc(F)c(F)c3)c2)c1)c1ncnc2nc(C3CCCC3)[nH]c12 [Example 60, 8-Cyclopentyl-N-(3-(1-(3,4-difluorophenyl)-1H-pyrazol-4-yl)-5-fluorobenzyl)-7H-purine-6-carboxamide] |  | 100 to 1000 nM | < 100 nM |  |  |
| CN1CCC[C@H]1c1nc2ncnc(C(=O)NCc3cc(F)cc(-c4cnn(C)c4)c3)c2[nH]1 [Example 63, (S)-N-(3-fluoro-5-(1-methyl-1H-pyrazol-4-yl)benzyl)-8-(1-methylpyrrolidin-2-yl)-7H-purine-6-carboxamide] | 100 to 1000 nM | 1000 to 10000 nM |  |  |  |
| CN1CCC[C@@H]1c1nc2ncnc(C(=O)NCc3cc(F)cc(-c4cnn(C)c4)c3)c2[nH]1 [Example 66, (R)-N-(3-fluoro-5-(1-methyl-1H-pyrazol-4-yl)benzyl)-8-(1-methylpyrrolidin-2-yl)-7H-purine-6-carboxamide] | < 100 nM | 1000 to 10000 nM |  |  |  |
| Cn1cc(-c2cc(F)cc(CNC(=O)c3ncnc4nc(C5CC6C(C5)C6(F)F)[nH]c34)c2)cn1 (centres unmarked) [Example 77, 8-(6,6-Difluorobicyclo[3.1.0]hexan-3-yl)-N-(3-fluoro-5-(1-methyl-1H-pyrazol-4-yl)benzyl)-7H-purine-6-carboxamide] | 100 to 1000 nM | 1000 to 10000 nM |  |  |  |
